From publication doi:10.64898/2025.12.04.692396, “Mechanisms of ligand recognition and channel opening for P2X2 receptors in lipid nanodiscs” (bioRxiv, 2025)
Positions count from the first letter of the chain named.

Experiments:
Type in all cases: cell-based
[1] = molecular target: T1, hP2X2R (human P2X2 receptor) (Homo sapiens, UniProt Q9UBL9)
T1 construct: gene P2RX2; hP2X2-L
T1 sequence (Q9UBL9 1-471): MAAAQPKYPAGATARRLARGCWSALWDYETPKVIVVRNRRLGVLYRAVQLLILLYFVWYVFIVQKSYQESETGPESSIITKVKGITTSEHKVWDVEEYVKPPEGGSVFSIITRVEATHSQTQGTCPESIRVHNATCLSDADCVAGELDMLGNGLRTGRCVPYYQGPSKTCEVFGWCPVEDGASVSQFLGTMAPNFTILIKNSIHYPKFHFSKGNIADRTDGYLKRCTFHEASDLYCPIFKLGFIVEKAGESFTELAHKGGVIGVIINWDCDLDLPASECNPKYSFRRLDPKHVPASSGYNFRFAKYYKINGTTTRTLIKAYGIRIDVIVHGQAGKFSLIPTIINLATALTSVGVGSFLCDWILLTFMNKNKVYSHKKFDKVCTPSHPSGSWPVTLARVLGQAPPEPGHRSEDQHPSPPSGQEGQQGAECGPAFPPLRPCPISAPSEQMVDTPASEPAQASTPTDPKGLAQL

[2] = molecular target: T2, hP2X2R (human P2X2 receptor) (Homo sapiens, UniProt Q9UBL9, R130A)
T2 construct: gene P2RX2; hP2X2-L
T2 sequence (Q9UBL9 1-471 R130A): T1 sequence (Q9UBL9 1-471) with R130A

[3] = molecular target: T2, hP2X2R (human P2X2 receptor); assay: whole-cell patch clamp in HEK293 cells, EDTA solution
[4] = molecular target: T3, hP2X2R (human P2X2 receptor) (Homo sapiens, UniProt Q9UBL9, R130E); assay: as above
T3 construct: gene P2RX2; hP2X2-L
T3 sequence (Q9UBL9 1-471 R130E): T1 sequence (Q9UBL9 1-471) with R130E

[5] = molecular target: T4, hP2X2R (human P2X2 receptor) (Homo sapiens, UniProt Q9UBL9); assay: cryo-EM structure in nanodiscs; whole-cell patch clamp EC50 in EDTA ([…] with divalent cations)
T4 construct: gene P2RX2; hP2X2-L (Q9UBL9-1) with ATP4−; hP2X2-S (Q9UBL9-2) with Mg-ATP2−; homotrimer in MSP1E3D1 lipid nanodiscs
T4 sequence (Q9UBL9 1-404 isoform Q9UBL9-2): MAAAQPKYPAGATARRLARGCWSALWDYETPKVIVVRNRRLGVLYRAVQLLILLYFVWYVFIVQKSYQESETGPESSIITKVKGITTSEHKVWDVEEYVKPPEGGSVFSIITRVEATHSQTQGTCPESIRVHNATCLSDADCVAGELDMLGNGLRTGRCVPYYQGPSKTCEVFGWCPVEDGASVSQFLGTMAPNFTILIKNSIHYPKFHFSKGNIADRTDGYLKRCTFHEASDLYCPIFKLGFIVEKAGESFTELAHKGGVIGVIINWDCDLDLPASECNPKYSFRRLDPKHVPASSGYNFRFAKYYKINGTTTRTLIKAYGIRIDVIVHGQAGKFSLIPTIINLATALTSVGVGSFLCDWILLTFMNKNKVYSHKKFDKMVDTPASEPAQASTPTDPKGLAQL

| SMILES | whole-cell patch clamp in HEK293 cells (weak activation) [1] | whole-cell patch clamp in HEK293 cells (weak activation) [2] | EC50 [3] [µM] | EC50 [4] [µM] | EC50 [5] [µM] |
| --- | --- | --- | --- | --- | --- |
| Nc1ncnc2c1ncn2[C@@H]1O[C@H](COP(=O)(O)CP(=O)(O)OP(=O)(O)O)[C@@H](O)[C@H]1O [α,β-Methylene-ATP] | α,β-Methylene-ATP could only weakly activate either WT hP2X2 or the R130A mutant | α,β-Methylene-ATP could only weakly activate either WT hP2X2 or the R130A mutant |  |  |  |
| Nc1ncnc2c1ncn2[C@@H]1O[C@H](COP(=O)(O)OP(=O)(O)OP(=O)(O)O)[C@@H](O)[C@H]1O [ATP] |  |  | 3.7 ± 0.9 | 4 ± 0.9 | 1.4 ± 0.4 |
